Assay [1] relates to DIGSA. In words: Post-emergence herbicidal action against DIGSA. The conditions noted are these: 80 g/ha, visual assessment about 3 weeks after treatment vs untreated controls. In kind it is in vivo, Digitaria sanguinalis. A digest of the protocol:
(§1)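 Herbicidal action is rated visually in percent against untreated controls, where 100% means dead plants and 0% means no difference. Ratings come about 3 weeks after foliar spraying of one-leaf-stage plants with aqueous WP or EC preparations plus 0.2% wetting agent at 600 to 800 l/ha.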

The subject of the next assay is MATIN. Kind of assay: Pre-emergence herbicidal action against MATIN. The format is in vivo. The following applies: 320 g/ha. A digest of the protocol:
(§2)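 Weed and crop seeds sown in sandy loam, then WP or EC formulations sprayed onto covering soil pre-emergence as aqueous suspension or emulsion at 600 to 800 L/ha water with 0.2% wetting agent. Greenhouse-grown; visual damage scored after 3 weeks versus untreated controls, 0–100%.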

Assay [2] deals with LOLRI. In words: Pre-emergence herbicidal action against LOLRI (Table 8, titled post-emergence at 320 g/ha). In kind it is in vivo, Lolium rigidum. The conditions noted are these: table stands in the pre-emergence section. The procedure, abridged:
as §2

Assay [3] relates to ALOMY. Kind of assay: Post-emergence herbicidal action against ALOMY. The format is in vivo, Alopecurus myosuroides. The conditions noted are these: 80 g/ha, visual assessment after about 3 weeks. A digest of the protocol:
as §1

Assay [4] relates to VERPE. Kind of assay: Post-emergence herbicidal action against VERPE. In kind it is in vivo, Veronica persica. The following applies: 80 g/ha, visual assessment about 3 weeks after treatment vs untreated controls. The procedure: (§3) Seeds of monocotyledonous and dicotyledonous weed and crop plants are laid out in sandy loam soil in wood-fiber pots, covered with soil and cultivated in a greenhouse under good growth conditions. 2 to 3 weeks after sowing, the test plants are treated at the one-leaf stage. The compounds of the invention, formulated in the form of wettable powders (WP) or as emulsion concentrates (EC), are then sprayed onto the green parts of the plants as aqueous suspension or emulsion at a water application rate equating to 600 to 800 l/ha with addition of 0.2% wetting agent. After the test plants have been left to stand in the greenhouse under optimal growth conditions for about 3 weeks, the action of the preparations is assessed visually in comparison to untreated controls (herbicidal action in percent (%): 100% activity=the plants have died, 0% activity=like control plants).

Assay [5] relates to ALOMY. Kind of assay: Pre-emergence herbicidal action against ALOMY. The format is in vivo, Alopecurus myosuroides. The following applies: 320 g/ha, scored visually after 3 weeks vs untreated controls. The procedure, abridged:
as §2

Assay [6] concerns DIGSA. In words: Pre-emergence herbicidal action against DIGSA. The format is in vivo, Digitaria sanguinalis. The following applies: 320 g/ha, scored visually after 3 weeks vs untreated controls. The procedure, abridged:
as §2

For assay [7], the system named is AVEFA. In words: Post-emergence herbicidal action against AVEFA. In kind it is in vivo, Avena fatua. The conditions noted are these: 80 g/ha, visual assessment after about 3 weeks. The procedure, abridged:
as §1

The next assay relates to VIOTR. In words: Pre-emergence herbicidal action against VIOTR. The format is in vivo, Viola tricolor. The conditions noted are these: 320 g/ha. A digest of the protocol:
as §2

Assay [8] deals with AMARE. In words: Pre-emergence herbicidal action against AMARE. In kind it is in vivo, Amaranthus retroflexus. The following applies: 320 g/ha. A digest of the protocol:
as §2

Assay [9] relates to AVEFA. In words: Pre-emergence herbicidal action against AVEFA. The following applies: 320 g/ha, scored visually after 3 weeks vs untreated controls. In kind it is in vivo, Avena fatua. The procedure, abridged:
as §2

For assay [10], the system named is LOLRI. In words: Post-emergence herbicidal action against LOLRI. The format is in vivo, Lolium rigidum. The following applies: 80 g/ha, visual assessment about 3 weeks after treatment vs untreated controls. A digest of the protocol: as §1
Assay [11] concerns ECHCG. Kind of assay: Pre-emergence herbicidal action against ECHCG. The format is in vivo, Echinochloa crus-galli. The conditions noted are these: 320 g/ha, scored visually after 3 weeks vs untreated controls. The procedure, abridged:
as §2

Assay [12] has as its system ECHCG. Kind of assay: Post-emergence herbicidal action against ECHCG. In kind it is in vivo, Echinochloa crus-galli. The following applies: 80 g/ha, visual assessment about 3 weeks after treatment vs untreated controls. The procedure, abridged: as §1
For assay [13], the system named is SETVI. Kind of assay: Pre-emergence herbicidal action against SETVI. The following applies: 320 g/ha, scored visually after 3 weeks vs untreated controls. The format is in vivo, Setaria viridis. A digest of the protocol:
as §2

Assay [14] has as its system ABUTH. In words: Post-emergence herbicidal action against ABUTH. The conditions noted are these: 80 g/ha, visual assessment about 3 weeks after treatment vs untreated controls. The format is in vivo, Abutylon threophrasti. The procedure, abridged: as §1
For assay [15], the system named is AMARE. In words: Post-emergence herbicidal action against AMARE. The following applies: 80 g/ha, visual assessment about 3 weeks after treatment vs untreated controls. In kind it is in vivo, Amaranthus retroflexus. The procedure:
as §3

The test system of assay [16] is SETVI. In words: Post-emergence herbicidal action against SETVI. The format is in vivo, Setaria viridis. The following applies: 80 g/ha, visual assessment about 3 weeks after treatment vs untreated controls. The procedure, abridged: as §1
Assay [17] concerns VERPE. Kind of assay: Pre-emergence herbicidal action against VERPE. In kind it is in vivo, Veronica persica. The following applies: 320 g/ha. A digest of the protocol:
as §2

In another assay the test system is POLCO. In words: Pre-emergence herbicidal action against POLCO. In kind it is in vivo, Polygonum convolvulus. The conditions noted are these: 320 g/ha. The procedure, abridged:
as §2

Assay [18] has as its system ABUTH. In words: Pre-emergence herbicidal action against ABUTH. The conditions noted are these: 320 g/ha. In kind it is in vivo, Abutylon threophrasti. A digest of the protocol:
as §2

With `CC#Cc1cc(C)c(C2=C(O)C3(CCC(COCC)C3)NC2=O)c(OC)c1` (stereo not drawn) [Example I-30], the “Post-emergence action against DIGSA in %” value in the assay on DIGSA [1] was determined as 100%. Further, the “Pre-emergence action against MATIN in %” value with MATIN amounted to 90%. Further, in the assay on LOLRI [2], the “Pre-emergence herbicidal action against LOLRI in %” value worked out at 100%. The “Post-emergence action against ALOMY in %” value with ALOMY [3] came out at 90%. In addition, in the assay with VERPE [4], the “Post-emergence action against VERPE in %” value amounted to 80%. Further, the “Pre-emergence action against ALOMY in %” value in the assay with ALOMY [5] is reported as 100%. Also, in the assay with DIGSA [6], the “Pre-emergence action against DIGSA in %” value was 100%. Moreover, the “Post-emergence action against AVEFA in %” value in the assay on AVEFA [7] is reported as 80%. Further, the “Pre-emergence action against VIOTR in %” value in the assay with VIOTR turned out to be 100%. Besides, the “Pre-emergence action against AMARE in %” value with AMARE [8] worked out at 100%. Further, the “Pre-emergence action against AVEFA in %” value with AVEFA [9] came out at 90%. Besides, the “Post-emergence action against LOLRI in %” value in the assay on LOLRI [10] stood at 100%. For the same compound, the “Pre-emergence action against ECHCG in %” value in the assay with ECHCG [11] is given as 100%. In addition, the “Post-emergence action against ECHCG in %” value in the assay on ECHCG [12] is given as 100%. The “Pre-emergence action against SETVI in %” value in the assay on SETVI [13] was determined as 100%. Also, in the assay on ABUTH [14], the “Post-emergence action against ABUTH in %” value was determined as 80%.
On to `C=CCOCC1CCC2(C1)NC(=O)C(c1c(C)cc(C#CC)cc1Cl)=C2O` (stereo not drawn) [Example I-44], for which the “Post-emergence action against AMARE in %” value with AMARE [15] came out at 80%. The “Post-emergence action against SETVI in %” value in the assay on SETVI [16] turned out to be 100%. Further, the “Post-emergence action against DIGSA in %” value in the assay on DIGSA [1] stood at 100%. The “Pre-emergence action against MATIN in %” value with MATIN came to 80%. Further, the “Pre-emergence herbicidal action against LOLRI in %” value in the assay on LOLRI [2] was 100%. In the assay with ALOMY [3], the “Post-emergence action against ALOMY in %” value is 100%. For the same compound, the “Pre-emergence action against ALOMY in %” value with ALOMY [5] was determined as 100%. In the assay on DIGSA [6], the “Pre-emergence action against DIGSA in %” value is recorded as 100%. Moreover, the “Post-emergence action against AVEFA in %” value in the assay on AVEFA [7] was determined as 80%. Further, the “Pre-emergence action against VIOTR in %” value with VIOTR turned out to be 100%. The “Pre-emergence action against AMARE in %” value in the assay on AMARE [8] came out at 100%. Also, in the assay with AVEFA [9], the “Pre-emergence action against AVEFA in %” value amounted to 90%. Moreover, the “Post-emergence action against LOLRI in %” value in the assay with LOLRI [10] was determined as 80%. Further, the “Pre-emergence action against ECHCG in %” value in the assay on ECHCG [11] is 90%. In addition, the “Pre-emergence action against VERPE in %” value in the assay on VERPE [17] amounted to 80%. Further, in the assay on POLCO, the “Pre-emergence action against POLCO in %” value was 100%. In addition, the “Pre-emergence action against ABUTH in %” value in the assay on ABUTH [18] is recorded as 80%. The “Post-emergence action against ECHCG in %” value in the assay on ECHCG [12] came to 100%. For the same compound, in the assay with SETVI [13], the “Pre-emergence action against SETVI in %” value came out at 100%.
Regarding `CC#Cc1cc(C)c(C2=C(O)C3(CCC(COCCC)C3)NC2=O)c(Cl)c1` (stereo not drawn) [Example I-71], in the assay on SETVI [16], the “Post-emergence action against SETVI in %” value was determined as 100%. For the same compound, the “Post-emergence action against DIGSA in %” value with DIGSA [1] stood at 90%. Further, in the assay on MATIN, the “Pre-emergence action against MATIN in %” value was found to be 90%. Moreover, the “Pre-emergence herbicidal action against LOLRI in %” value with LOLRI [2] came to 100%. Also, the “Post-emergence action against ALOMY in %” value in the assay on ALOMY [3] is 90%. In addition, the “Post-emergence action against VERPE in %” value in the assay with VERPE [4] amounted to 80%. Moreover, in the assay with ALOMY [5], the “Pre-emergence action against ALOMY in %” value was 100%. The “Pre-emergence action against DIGSA in %” value in the assay on DIGSA [6] came to 100%. Further, in the assay on AVEFA [7], the “Post-emergence action against AVEFA in %” value is listed as 80%. For the same compound, in the assay on VIOTR, the “Pre-emergence action against VIOTR in %” value was 100%. Further, the “Pre-emergence action against AVEFA in %” value in the assay with AVEFA [9] was 80%. Further, in the assay with LOLRI [10], the “Post-emergence action against LOLRI in %” value is 90%. The “Pre-emergence action against ECHCG in %” value with ECHCG [11] was 100%. In addition, in the assay on VERPE [17], the “Pre-emergence action against VERPE in %” value came out at 90%. In addition, the “Post-emergence action against ECHCG in %” value in the assay with ECHCG [12] worked out at 90%. Further, the “Pre-emergence action against SETVI in %” value in the assay on SETVI [13] turned out to be 100%.

These data come from patent US20220386606A1, “SPECIFICALLY SUBSTITUTED 3-PHENYL-5-SPIROCYCLOPENTYL-3-PYRROLIN-2-ONES AND THEIR USE AS HERBICIDES” (Bayer Aktiengesellschaft, priority 2019, published 2022).
